Data: article PMC8132342, “Antimalarial properties and molecular docking analysis of compounds from Dioscorea bulbifera L. as new antimalarial agent candidates” (BMC Complementary Medicine and Therapies, 2021)
Like-named read-outs stand apart in the source and are kept apart here.

Key:
[1] = tested on: CQ-sensitive P. falciparum (3D7 strain); experiment: Antimalarial activity, 3H-hypoxanthine uptake inhibition, 3D7 strain; type: cell-based; details: Plasmodium falciparum
Description: (§1) The culture of P. falciparum malaria parasites was continuously performed using standard methods with some modifications. RPMI-1640 medium was supplemented with noninfected type O-positive red blood cells (2% hematocrit), 2 mg/ml sodium bicarbonate, 10 μg/ml hypoxanthine (Sigma-Aldrich, New Delhi, India), 4.8 mg/ml HEPES (Himedia, Mumbai, India), 10% human AB serum and 2.5 μg/ml gentamicin (Sigma-Aldrich, New Delhi, India).
(§2) Antimalarial activity of extracts and compounds from D. bulbifera against P. falciparum K1 and 3D7 strains were assessed by measuring ^3H-hypoxanthine incorporated in parasite nucleic acids using the modified technique of Desjadins et al.. The red cell suspension at 1–2% hematocrit containing 1% ring stage P. falciparum-infected red blood cells was incubated with various concentrations of extracts (2.50–80 μg/ml) and pure compounds (2.5–80 μM) in 96-well culture plates. Parasites were incubated at 37 °C for 24 h, then ^3H-hypoxanthine (25 μl of 0.025 μCi/μl) was added to each well, and the plates were maintained under conditions of 93% N2, 3% O2 and 4% CO2 at 37 °C for an additional 24 h. The samples were transferred to a glass fiber filter (Wallac, Turku, Finland). ^3H-Hypoxanthine uptake was then assessed using a MicroBeta TriLux Liquid Scintillation Counter (PerkinElmer, USA). Each assay condition was performed in triplicate independently. The concentration of samples that inhibited the uptake of ^3H-hypoxanthine by 50% (IC50) assessed by log dose response curve using WinNonlin software version 4.1 (Pharsight Corporation, CA) was used as a marker of antimalarial effect potency.

[2] = tested on: chloroquine (CQ)-resistant P. falciparum (K1 strain); experiment: Antimalarial activity, 3H-hypoxanthine uptake inhibition, K1 strain; type: cell-based, Plasmodium falciparum
Description: as §1, §2

[3] = In vitro cytotoxicity, MTT assay; type: cell-based; details: African green monkey
Description: The toxicity of D. bulbifera extracts and isolated compounds was assessed by 3-(4,5-dimethythiazol-2-yl)-2,5-diphenyl tetrazolium bromide (MTT) assay according to a previous method. Briefly, Vero cells (Elabscience, Wuhan, Hubei, China) were seeded into 96-well plates at a density of 10^4 cell/ml and incubated for 24 h at 37 °C with 5% CO2. Cells were then treated with various concentrations of extracts and compounds for 48 h at 37 °C with 5% CO2. Doxorubicin (Sigma-Aldrich, New Delhi, India) was used as a toxic control. Subsequently, MTT solution was added to each well, and the plate was incubated for 2 h in a CO2 incubator. The medium was then removed, and 100 μl of DMSO was added to each well. Finally, the optical density was determined at a wavelength of 590 nm using a microplate reader. The assay was performed in duplicate.

[4] = Vero cells, MTT, 48 h, read-out: CC50
[5] = pure compounds, P. falciparum 3D7 strain, mean ± S.D. of three determinations, read-out: IC50 3D7
[6] = Plasmodium falciparum, K1, pure compounds, P. falciparum K1 strain, mean ± S.D. of three determinations, read-out: IC50 K1

Structure (SMILES)	CC50 at 48 h [3, 4] [µM]	IC50 [1, 5] [µM]	IC50 [2, 6] [µM]	also measured
C[C@H]1[C@H](OC(=O)CCC(=O)O)O[C@@H]2O[C@@]3(C)CC[C@H]4[C@H](C)CC[C@@H]1[C@@]24OO3 [Artesunate, artesunate, reference compound]				IC50 ([1]; positive controls (footnote d), P. falciparum 3D7 strain, read-out: IC50 3D7): 0.00181 ± 0.00019 µM; IC50 ([2]; Plasmodium falciparum, K1, positive controls (footnote d), P. falciparum K1 strain, read-out: IC50 K1): 0.00053 ± 4e-05 µM
CCN(CC)CCCC(C)Nc1ccnc2cc(Cl)ccc12 (stereo not drawn) [Chloroquine, chloroquine, reference compound]				IC50 ([1]; 3D7, read-out: IC50 3D7): 0.00991 ± 0.00056 µM; IC50 ([2]; Plasmodium falciparum, K1, read-out: IC50 K1): 0.103 ± 0.0045 µM
CC(=O)OC1CC2C(=O)OC(c3ccoc3)CC2(C)C2CC3CC(C(=O)O3)C12 (stereo not drawn) [Compound 1, 8-epidiosbulbin E acetate]	> 80	> 80	> 80	
CC(=O)OC1CC2(O)C(=O)OC(c3ccoc3)CC2(C)C2CC3CC(C(=O)O3)C12 (stereo not drawn) [Compound 2, 15,16-epoxy-6α-O-acetyl-8β-hydroxy-19-nor-clero-13(16),14-diene-17,12;18,2-diolide]	> 80	> 80	> 80	
CCC(C(C)C)C(C)CC(C)C1CCC2C3C=CC4CC(OC5OC(CO)C(O)C(O)C5O)CCC4(C)C3CCC12C (stereo not drawn) [Compound 3]		> 80	> 80	CC50 at 48 h [3]: > 80 µM
COc1c(-c2ccc(O)c(O)c2)oc2cc(O)cc(OC)c2c1=O [Compound 4, 3,5-dimethoxy quercetin]	> 80	70.8 ± 2.32	44 ± 1.47	
Oc1cc(O)c2c(c1)O[C@H](c1ccc(O)c(O)c1)[C@@H](O)C2 [Compound 5, (+)-catechin]	> 80	> 80	> 80	
O=c1c(O)c(-c2ccc(O)c(O)c2)oc2cc(O)cc(O)c12 [Compound 6, quercetin]	> 80	51 ± 7.28	28.5 ± 0.9	fold higher activity than 3,5-dimethoxyquercetin (4) ([2]; K1 strain): approximately 1.5 fold; fold higher activity than quercetin-3-O-β-D-galactopyranoside (14) ([2]; K1 strain): ~2 fold; inhibition at 80 µM ([2]; Plasmodium falciparum, at a concentration of 80 μM, K1 strain): 97%
O=c1c(O)c(-c2ccc(O)cc2)oc2cc(O)cc(O)c12 [Compound 7, kaempferol]	> 80	> 80	62.5 ± 1.33	
NC(=O)NC1NC(=O)NC1=O (stereo not drawn) [Compound 8, allantoin]	> 80	> 80	> 80	
Oc1cc(O)cc(CCc2ccc(O)cc2O)c1 [Compound 9, 2,4,3′,5′-tetrahydroxybibenzyl]		58.9 ± 4.31	40 ± 2.5	CC50 at 48 h [3]: 16.7 µM
Oc1cc(O)c2c(c1)CCc1cc(O)c(O)cc1-2 [Compound 10, 2,4,6,7-tetrahydroxy-9,10-dihydrophenanthrene]	> 80	> 80	58.3 ± 1.96	
O=c1c(O)c(-c2cc(O)c(O)c(O)c2)oc2cc(O)cc(O)c12 [Compound 11, myricetin]	> 80	> 80	> 80	
O=c1c(O[C@@H]2O[C@H](CO)[C@@H](O)[C@H](O)[C@H]2O)c(-c2ccc(O)c(O)c2)oc2cc(O)cc(O)c12 [Compound 13, quercetin-3-O-β-D-glucopyranoside]	> 80	> 80	> 80	
O=c1c(O[C@@H]2O[C@H](CO)[C@H](O)[C@H](O)[C@H]2O)c(-c2ccc(O)c(O)c2)oc2cc(O)cc(O)c12 [Compound 14, quercetin-3-O-β-D-galactopyranoside]	> 80	68.9 ± 4.31	48.9	IC50 ([2]; pure compounds, P. falciparum K1 strain, mean ± S.D. of three determinations, read-out: IC50 K1): 48.3 ± 1.21 µM
COc1cccc2c1C(=O)c1c(O)c3c(c(O)c1C2=O)C[C@@](O)(C(=O)CO)C[C@@H]3O[C@H]1C[C@H](N)[C@H](O)[C@H](C)O1 [Doxorubicin, reference compound]	1.96 ± 0.11			
